Experiments:
rats [1] = test: Flinches in rats after intraplantar injection of capsaicin; type: in vivo, rat
rats [2] = details: rat, in vivo

Row | SMILES | number of flinches (mean) after intraplantar capsaicin following BCTC conditioning (rats [1]; 40 mg/kg BCTC s.c. one hour before capsaicin, 4 minutes, p<0.05, n=6) | reduction of induced pain effect (rats [2]) [%] | dose needed to decrease half of the number of flinches induced by the venom (rats [2]; sc) [mg/kg] | dose of maximal analgesic effect (rats [2]; sc) [mg/kg] | number of flinches (mean) after intraplantar capsaicin alone (rats [1]; 10 μg capsaicin intraplantar, 4 minutes observation, n=6)
1 | CC(C)(C)c1ccc(NC(=O)N2CCN(c3ncccc3Cl)CC2)cc1 [BCTC, N-(4-Tertiarybutylphenyl)-4-(3-cholorphyridin-2-yl)tetrahydropyrazine-1(2H)-carbox-amide] | 4.2 | 79 | 10 to 40 | 40 | 
2 | COc1cc(CNC(=O)CCCC/C=C/C(C)C)ccc1O [capsaicin] |  |  |  |  | 76.0

— patent US20100234454A1 (priority 2006, published 2010)
